Drawing on ChEMBL document CHEMBL1130657, “Synthesis of novel fluorinated coumarins: excellent UV-light excitable fluorescent dyes” (Bioorg Med Chem Lett, 1998), this text covers pKa for five compounds.

This data set can be described thus: Photostability, pKa was evaluated. Type of data set: physicochemical.
For the compound `O=C(O)c1cc2cc(F)c(O)c(F)c2oc1=O`, the pKa – broadly, the pH at which an ionisable group is half protonated – was 3.7. With `O=C(O)c1cc2ccc(O)cc2oc1=O` the figure was 7.5.

The compound `CCOC(=O)c1cc2cc(F)c(O)c(F)c2oc1=O` gave a pKa of 3.8. The same measure for `Cc1c(CC(=O)O)c(=O)oc2c(F)c(O)c(F)cc12`: 4.7; for `Cc1cc(=O)oc2c(F)c(O)ccc12`: 6.4.
